Where a SMILES comes first, the peptide text is derived from it. The star is where a group is joined. Cbz = O=C(OCc1ccccc1)*; CH2F = FC*
Legend:
[1] = system: human neuroblastoma SK-N-MC cells; experiment: Inhibition of ROS production induced by xanthine/xanthine oxidase (H2DCFDA probe, LDH-normalized); format: cell-based; settings: XXO 10 μM-100 mU/ml, AA 100 μM, positive control
Method: The assay was performed on human neuroblastoma SK-N-MC cells in culture from the American Type Culture Collection (ATCC) (HTB-10), in all cases strict rules of sterility were followed and the manipulation was performed in class II biological safety cabinets following European standard EN 12469. The cells were maintained in Minimum Essential Medium Eagle (MEM) culture medium supplemented with 1 mM sodium pyruvate, 2 mM L-glutamine, 0.1 mM non-essential amino acids, 0.05 mg/ml gentamicin and 10% fetal bovine serum.
The inhibition by the NST0003 compound [(1S,3R,7S,8S,8aR)-1,2,3,7,8,8a-hexahydro-3,7-dimethyl-8-[2-[(2R,4R)-tetrahydro-4-hydroxy-6-oxo-2H-pyran-2-yl]ethyl-1-naphthalenyl propanoate] on the production of reactive oxygen species (ROS) in the SK-N-MC cells, was analyzed. […]
The cells were incubated (at 37° C. and 5% CO2) with these treatments for 3 h, after which time they were washed with HKRB buffer (20 mM HEPES, 103 mM NaCl, 4.77 mM KCl, 0.5 mM CaCl2, 1.2 mM MgCl2, 1.2 mM KH2PO4, 25 mM […], 15 mM glucose; at pH 7.3) after which the 2′,7′-dichlorodihydrofluorescein diacetate (H2DCFDA) probe was added at 30 μM diluted in HKRB buffer and it was incubated for another 2 hours in the same conditions. The reading of the plate was taken in a fluorometer at the conditions of 485 nm for excitation and 538 nm for emission. […]

SK-N-MC cells = experiment: Inhibition of camptothecin-induced apoptosis by flow cytometry (propidium iodide, sub-G1); format: cell-based, human; settings: camptothecin 50 μM, 6 h, Z-VAD-fmk 50 μM
Method: To that end, the inhibition caused by the NST0005 compound of apoptosis caused by the treatment with camptothecin (Campt) was analyzed. The SK-N-MC cells, not exceeding 15 passages, were seeded on 6-well plates treated for adherent cells with a cell concentration of 8×10^5 cells/well; 2 wells of the plate were seeded for each condition of the assay.
After 24 h of cell incubation at 37° C. and 5% CO2 the cell treatments were performed with 2 ml of total volume for the following conditions: (i), control (culture medium); (ii), camptothecin [50 μM]; (iii) camptothecin [50 μM] and Z-VAD-fmk [50 μM] (Alexis), as positive control of inhibition; and (iv), 50 μM camptothecin with NST0005 at different concentrations [4, 10, 40 and 100 μg/ml].
The cells were incubated (at 37° C. and 5% CO2) with these treatments for 6 h, after which time they were pooled together with their culture medium and centrifuged at 300×g for 5 minutes. The medium was removed, a washing was performed with phosphate buffered saline (PBS) and they were fixed for 2 minutes with 500 μl of 70% ethanol at −20° C. […] After this time, they were analyzed by flow cytometry, comparing the fluorescence of the propidium iodine against the amount of DNA. The percentage of apoptosis was measured on the sub-G1 region of each of the conditions. […]

[2] = system: caspase 3/7 activation in SK-N-MC cells; experiment: Inhibition of camptothecin-induced caspase 3/7 activation (Apo-ONE kit); format: cell-based, human; settings: camptothecin 50 μM, 6 h, Z-VAD-fmk 50 μM
Method: To that end, the inhibition caused by (1S,3R,7S,8S,8aR)-1,2,3,7,8,8a-hexahydro-3,7-dimethyl-8-[2-[(2R,4R)-tetrahydro-4-hydroxy-6-oxo-2H-pyran-2-yl]ethyl-1-naphthalenyl 2,2-dimethylpropanoate (NST0005) of apoptosis caused by the treatment with camptothecin (Campt) on the SK-N-MC cells in culture was analyzed following the working conditions specified in section 3.1. Apoptosis can be quantified by measuring effector caspase activation. Caspases (proteins belonging to the cysteine-protease group) mediate the cleavage of a series of proteins triggering the signaling cascade which leads cells to apoptosis. […] The active cellular caspases 3 or 7 cause the cleavage of the substrate, emitting fluorescence which is read by means of a fluorometer.
The effect of the pretreatment of the NST0005 compound at 40 and 100 μg/ml on caspase 3/7 activation caused by 50 μM of camptothecin (Campt) in the SK-N-MC cells was thus analyzed. […]
The cells were incubated (at 37° C. and 5% CO2) with these treatments for 6 h, after which time the lysis buffer and the substrate rhodamine 110 were added at the concentrations specified by the manufacturer; they were incubated at room temperature for 30 minutes and the cells were then frozen at −20° C. overnight. They were thawed the next day and the reading of the plate was taken in a fluorometer at 499 nm for excitation and 521 nm for emission.

O=C1O[C@H]([C@@H](O)CO)C(O)=C1O [AA, ascorbic acid, reference compound]
inhibition at 100 µM [1]: 80%

COC(=O)C[C@H](NC(=O)[C@H](C)NC(=O)[C@@H](NC(=O)OCc1ccccc1)C(C)C)C(=O)CF [Z-VAD-fmk, reference compound] (Cbz-Val-Ala-Asp(OMe)-CH2F)
inhibition of apoptosis caused by camptothecin (flow cytometry) (SK-N-MC cells): 30% | inhibition of caspase 3/7 activation [2]: completely inhibited

Reference: patent US20110319484A1, “NEUROPROTECTIVE COMPOUNDS” (Parque Tecnologico de Ciencias de la Salud, priority 2009, published 2011)
